Measured values as given in US20100048950A1 (BOEHRINGER INGELHEIM INTERNATIONAL GMBH, priority 2007, published 2010).

Biological target: T1, human glucocorticoid receptor (GR) complex (Homo sapiens, UniProt P04150)
T1 construct: made in house; host or cells: insect expression system (baculovirus lysate)
T1 sequence (P04150 1-777): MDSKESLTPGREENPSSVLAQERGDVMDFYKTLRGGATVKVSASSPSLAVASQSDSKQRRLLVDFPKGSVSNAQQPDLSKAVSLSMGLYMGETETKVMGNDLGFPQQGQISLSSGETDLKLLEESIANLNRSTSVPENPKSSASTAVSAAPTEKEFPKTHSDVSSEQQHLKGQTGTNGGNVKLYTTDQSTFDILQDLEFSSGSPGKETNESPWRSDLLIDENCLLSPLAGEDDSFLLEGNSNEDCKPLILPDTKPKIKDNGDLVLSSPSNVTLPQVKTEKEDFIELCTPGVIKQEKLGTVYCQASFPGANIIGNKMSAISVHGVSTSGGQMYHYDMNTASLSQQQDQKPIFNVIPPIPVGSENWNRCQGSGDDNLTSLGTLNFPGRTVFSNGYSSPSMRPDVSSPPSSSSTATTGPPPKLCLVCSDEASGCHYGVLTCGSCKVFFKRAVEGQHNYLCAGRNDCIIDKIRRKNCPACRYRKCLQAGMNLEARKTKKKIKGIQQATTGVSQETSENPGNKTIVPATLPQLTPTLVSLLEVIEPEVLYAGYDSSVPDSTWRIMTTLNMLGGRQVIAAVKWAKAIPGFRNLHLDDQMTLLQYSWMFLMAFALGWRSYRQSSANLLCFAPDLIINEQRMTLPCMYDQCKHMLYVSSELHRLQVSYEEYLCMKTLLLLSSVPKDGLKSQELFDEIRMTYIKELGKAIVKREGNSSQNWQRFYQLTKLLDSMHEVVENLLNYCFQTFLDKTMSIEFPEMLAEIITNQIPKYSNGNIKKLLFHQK
Assay: Glucocorticoid receptor competitive binding assay (fluorescence polarization)
Settings: competition with TAMRA-labeled dexamethasone, read-out: potent activity (IC50) in the GR binding assay
Description: Compounds of the invention were evaluated for binding to the steroid receptor by a fluorescence polarization competitive binding assay. Detailed descriptions for preparation of recombinant glucocorticoid receptor (GR) complex used in the assay is described in U.S. Patent Application Publication No. US 2003/0017503, filed May 20, 2002, and incorporated herein by reference in its entirety. Preparation of the tetramethylrhodamine (TAMRA)-labeled dexamethasone probe was accomplished using a standard literature procedure (M. Pons et al., J. Steroid Biochem., 1985, 22, pp. 267-273).
The affinity of the probe for the steroid receptor was then determined in a titration experiment. The fluorescence polarization value of the probe in assay buffer was measured on an SLM-8100 fluorometer using the excitation and emission maximum values described above. Aliquots of expression vector lysate were added and fluorescence polarization was measured after each addition until no further change in polarization value was observed. Non-linear least squares regression analysis was used to calculate the dissociation constant of the probe from the polarization values obtained for lysate binding to the probe.
This assay uses fluorescence polarization (FP) to quantitate the ability of test compounds to compete with tetramethylrhodamine (TAMRA)-labeled dexamethasone for binding to a human glucocorticoid receptor (GR) complex prepared from an insect expression system. The assay buffer was: 10 mM TES, 50 mM KCl, 20 mM Na2MoO4.2H2O, 1.5 mM EDTA, 0.04% w/v CHAPS, 10% v/v glycerol, 1 mM dithiothreitol, pH 7.4. Test compounds were dissolved to 1 mM in neat DMSO and then further diluted to 10× assay concentration in assay buffer supplemented with 10% v/v DMSO. Test compounds were serially diluted at 10× assay concentrations in 10% DMSO-containing buffer in 96-well polypropylene plates. Binding reaction mixtures were prepared in 96-well black Dynex microtiter plates by sequential addition of the following assay components to each well: 15 μL of 10× test compound solution, 85 μL of GR-containing baculovirus lysate diluted 1:170 in assay buffer, and 50 μL of 15 nM TAMRA-labeled dexamethasone. Positive controls were reaction mixtures containing no test compound; negative controls (blanks) were reaction mixtures containing 0.7 μM to 2 μM dexamethasone. The binding reactions were incubated for 1 hour at room temperature and then read for fluorescence polarization in the LJL Analyst set to 550 nm excitation and 580 nm emission, with the Rhodamine 561 dichroic mirror installed. IC50 values were determined by iterative non-linear curve fitting of the FP signal data to a 4-parameter logistic equation.

IC50, ≤ 100 nM:
CCC(CSc1ccccc1)NS(=O)(=O)c1c(C)cc(C)cc1C (stereo not shown) [2,4,6-Trimethyl-N-(1-phenylsulfanylmethylpropyl)benzenesulfonamide]
Cc1cc(C)cc(OCC(NS(=O)(=O)c2c(C)cc(C)cc2C)C(F)(F)F)c1 (stereo not shown) [N-[1-(3,5-Dimethylphenoxymethyl)-2,2,2-trifluoroethyl]-2,4,6-trimethylbenzenesulfonamide]
CC[C@@H](CNc1cccc2ccccc12)NS(=O)(=O)c1c(C)cc(C)cc1C [2,4,6-Trimethyl-N—[(S)-1-(naphthalen-1-ylaminomethyl)propyl]benzenesulfonamide]
Cc1cc(C)c(S(=O)(=O)NC(CNc2cc(C(F)(F)F)ccc2Cl)C(F)(F)F)c(C)c1 (stereo not shown) [N-{1-[(2-Chloro-5-trifluoromethylphenylamino)methyl]-2,2,2-trifluoroethyl}-2,4,6-trimethylbenzenesulfonamide]
Cc1ccc(SCC(NS(=O)(=O)c2c(N)cc(Cl)cc2Cl)C(F)(F)F)cc1 (stereo not shown) [2-Amino-4,6-dichloro-N-(2,2,2-trifluoro-1-p-tolylsulfanylmethylethyl)benzenesulfonamide]
Cc1cc(C)c(S(=O)(=O)NC(CNc2ccccc2Cl)C(F)(F)F)c(C)c1 (stereo not shown) [N-{1-[(2-Chlorophenylamino)methyl]-2,2,2-trifluoroethyl}-2,4,6-trimethylbenzenesulfonamide]
Cc1cc(C)c(S(=O)(=O)NC(COc2ccc(Cl)c(C(F)(F)F)c2)C(F)(F)F)c(C)c1 (stereo not shown) [N-[1-(4-Chloro-3-trifluoromethylphenoxymethyl)-2,2,2-trifluoroethyl]-2,4,6-trimethylbenzenesulfonamide]
Cc1cc(C)c(S(=O)(=O)NC(COc2cccc3ccccc23)C(F)(F)F)c(C)c1 (stereo not shown) [2,4,6-Trimethyl-N-[2,2,2-trifluoro-1-(naphthalen-1-yloxymethyl)ethyl]benzenesulfonamide]
Cc1cc(C)c(S(=O)(=O)NC(CSc2cc(Cl)ccc2Cl)C(F)(F)F)c(C)c1 (stereo not shown) [N-[1-(2,5-Dichlorophenylsulfanylmethyl)-2,2,2-trifluoroethyl]-2,4,6-trimethylbenzenesulfonamide]
Cc1cc(C)c(S(=O)(=O)NC(CSc2c(Cl)cccc2Cl)C(F)(F)F)c(C)c1 (stereo not shown) [N-[1-(2,6-Dichlorophenylsulfanylmethyl)-2,2,2-trifluoroethyl]-2,4,6-trimethylbenzenesulfonamide]
Cc1cc(C)c(S(=O)(=O)NC(CN(C)c2ccccc2)C(F)(F)F)c(C)c1 (stereo not shown) [2,4,6-Trimethyl-N-{2,2,2-trifluoro-1-[(methylphenylamino)methyl]ethyl}benzenesulfonamide]
Cc1cccc(OCC(NS(=O)(=O)c2c(C)cc(C)cc2C)C(F)(F)F)c1 (stereo not shown) [2,4,6-Trimethyl-N-(2,2,2-trifluoro-1-m-tolyloxymethylethyl)benzenesulfonamide]
Cc1cc(C)c(S(=O)(=O)NC(CSc2cccc(C(F)(F)F)c2)C(F)(F)F)c(C)c1 (stereo not shown) [2,4,6-Trimethyl-N-[2,2,2-trifluoro-1-(3-trifluoromethylphenylsulfanylmethyl)ethyl]benzenesulfonamide]
Cc1cc(C)c(S(=O)(=O)NC(COc2ccccc2C#N)C(F)(F)F)c(C)c1 (stereo not shown) [N-[1-(2-Cyanophenoxymethyl)-2,2,2-trifluoroethyl]-2,4,6-trimethylbenzenesulfonamide]
Cc1cc(C)c(S(=O)(=O)NC(COc2cccc(Cl)c2)C(F)(F)F)c(C)c1 (stereo not shown) [N-[1-(3-Chlorophenoxymethyl)-2,2,2-trifluoroethyl]-2,4,6-trimethylbenzenesulfonamide]
Cc1cc(C)c(S(=O)(=O)NC(CSc2ccccc2C(C)(C)C)C(F)(F)F)c(C)c1 (stereo not shown) [N-[1-(2-tert-Butylphenylsulfanylmethyl)-2,2,2-trifluoroethyl]-2,4,6-trimethylbenzenesulfonamide]
Cc1cc(C)c(S(=O)(=O)NC(COc2cccc3c2CCCC3)C(F)(F)F)c(C)c1 (stereo not shown) [2,4,6-Trimethyl-N-[2,2,2-trifluoro-1-(5,6,7,8-tetrahydronaphthalen-1-yloxymethyl)ethyl]benzenesulfonamide]
Cc1cc(C)c(S(=O)(=O)NC(CSc2c(C)cccc2Cl)C(F)(F)F)c(C)c1 (stereo not shown) [N-[1-(2-Chloro-6-methylphenylsulfanylmethyl)-2,2,2-trifluoroethyl]-2,4,6-trimethylbenzenesulfonamide]
Cc1cc(C)c(S(=O)(=O)NC(CNc2c(Cl)cc(Cl)cc2Cl)C(F)(F)F)c(C)c1 (stereo not shown) [2,4,6-Trimethyl-N-{2,2,2-trifluoro-1-[(2,4,6-trichlorophenylamino)methyl]ethyl}benzenesulfonamide]
Cc1cc(C)cc(NCC(NS(=O)(=O)c2c(C)cc(C)cc2C)C(F)(F)F)c1 (stereo not shown) [N-{1-[(3,5-Dimethylphenylamnino)methyl]-2,2,2-trifluoroethyl}-2,4,6-trimethyl-benzenesulfonamide]
Cc1cc(C)c(S(=O)(=O)NC(COc2ccc(C#N)c(Cl)c2)C(F)(F)F)c(C)c1 (stereo not shown) [N-[1-(3-Chloro-4-cyanophenoxymethyl)-2,2,2-trifluoroethyl]-2,4,6-trimethylbenzenesulfonamide]
Cc1cc(C)c(S(=O)(=O)NC(CSc2ccc(Cl)c(Cl)c2)C(F)(F)F)c(C)c1 (stereo not shown) [N-[1-(3,4-Dichlorophenylsulfanylmethyl)-2,2,2-trifluoroethyl]-2,4,6-trimethylbenzenesulfonamide]
Cc1cc(C)c(S(=O)(=O)NC(COc2cc(F)ccc2Br)C(F)(F)F)c(C)c1 (stereo not shown) [N-[1-(2-Bromo-5-fluorophenoxymethyl)-2,2,2-trifluoroethyl]-2,4,6-trimethylbenzenesulfonamide]
Cc1cc(C)c(S(=O)(=O)NC(CSc2cccc(Cl)c2)C(F)(F)F)c(C)c1 (stereo not shown) [N-[1-(3-Chlorophenylsulfanylmethyl)-2,2,2-trifluoroethyl]-2,4,6-trimethylbenzenesulfonamide]
Cc1cc(C)c(S(=O)(=O)NC(COc2ccc(Cl)cc2Cl)C(F)(F)F)c(C)c1 (stereo not shown) [N-[1-(2,4-Dichlorophenoxymethyl)-2,2,2-trifluoroethyl]-2,4,6-trimethylbenzenesulfonamide]
Cc1cc(C)cc(NCC(NS(=O)(=O)c2c(C)cc(C)cc2C)C(C)C)c1 (stereo not shown) [N-{1-[(3,5-Dimethylphenylamino)methyl]-2-methylpropyl}-2,4,6-trimethylbenzenesulfonamide]
COC(=O)c1ccccc1N(C)CC(NS(=O)(=O)c1c(C)cc(C)cc1C)C(F)(F)F (stereo not shown) [2-{Methyl-[3,3,3-trifluoro-2-(2,4,6-trimethylbenzenesulfonylamino)propyl]amino}benzoic acid methyl ester]
Cc1cc(C)c(S(=O)(=O)NC(COc2ccc(F)c(F)c2F)C(F)(F)F)c(C)c1 (stereo not shown) [2,4,6-Trimethyl-N-[2,2,2-trifluoro-1-(2,3,4-trifluorophenoxymethyl)ethyl]benzenesulfonamide]
